One assay concerns kochia. The experiment in a line: Test E pre-/postemergence herbicide test. Format: in vivo, Kochia scoparia. The text has this:
Seeds of plant species selected from bipinnate beggarticks (Bidens bipinnata L.), hairy beggarticks (Bidens radiata Thuill.), bermudagrass (Cynodon dactylon (L.) Pers.), Surinam grass (Urochloa decumbens (Staph) R. D. Webster, previously named Brachiaria decumbens Stapf), large crabgrass (Digitaria sanguinalis (L.) Scop.), green foxtail (Setaria viridis (L.) P. Beauv.), goosegrass (Eleusine indica (L.) Gaertn.), johnsongrass (Sorghum halepense (L.) Pers.), kochia (Kochia scoparia (L.) Schrad.), pitted morningglory (Ipomoea lacunosa L.), purple nutsedge (Cyperus rotundus L.), common ragweed (Ambrosia elatior L.), mustard (Brassica nigra (L.) W. D. J. Koch), guineagrass (Panicum maximum Jacq.), dallisgrass (Paspalum dilatatum Poir.), barnyardgrass (Echinochloa crus-galli (L). P. Beauv.), southern sandbur (Cenchrus echinatus L.), common sowthistle (Sonchus oleraceous L.), prickly sida (Sida spinosa L.), Italian ryegrass (Lolium multiflorum Lam.), common purslane (Portulaca oleracea L.), broadleaf signalgrass (Brachiaria platyphylla (Griseb.) Nash), common groundsel (Senecio vulgaris L.), common chickweed (Stellaria media (L.) Vill/Cyr.), tropical spiderwort (Commelina benghalensis L.), annual bluegrass (Poa annua L.), downy bromegrass (Bromus tectorum L.), itchgrass (Rottboellia cochinchinensis (L.) L.f.), quackgrass (Elytrigia repens (L.) Nevski), Canada horseweed (Erigeron Canadensis L.), field bindweed (Convolvulus arvensis L.), spotted spurge (Euphorbia maculata L.), common mallow (Malva sylvestris (=s silvestris) L.), and Russian thistle (Salsola kali L. ssp. Ruthenica (Iljin) Soo) were planted and treated preemergence with test chemicals formulated in a non-phytotoxic solvent mixture which included a surfactant.
At the same time, plants selected from these weed species were treated with postemergence applications of some of the test chemicals formulated in the same manner. Plants ranged in height from 2 to 18 cm (1- to 4-leaf stage) for postemergence treatments. Treated plants and controls were maintained in a greenhouse for 12 to 14 days, after which time all species were compared to controls and visually evaluated. Plant response ratings, summarized in Table E, are based on a scale of 0 to 100 where 0 is no effect and 100 is complete control. A dash (-) response means no test result.

The subject of another assay is annual blugrass. Nature of the assay: Test F pre-/postemergence herbicide test. Format: in vivo, Poa annua. The text has this: (§1) Seeds of plant species selected from annual blugrass (Poa annua L.), blackgrass (Alopecurus myosuroides Huds.), catchweed bedstraw (Gallium aparine L.), common chickweed (Stellaria media (L.) Vill./Cyr.), downy bromegrass (Bromus tectorum L.), green foxtail (Setaria viridis (L.) Beauv.), Italian ryegrass (Lolium multiflorum Lam.), kochia (Kochia scoparia (L.). Schrad.), lambsquarters (Chenopodium album L.), littleseed canarygrass (Phalaris minor Retz.), pigweed (Amaranthus retroflexus L.), Russian thistle (Salsola kali L. ssp. Ruthenica (Iljin) Soo), wild buckwheat (Polygonum convolvulus L.), wild mustard (Sinapis arvensis L.), wild oat (Avena fatua L.), windgrass (Apera spica-venti (L.) Beauv.), winter barley (Hordeum vulgare L.), and wheat (Triticum aestivum L.) were planted and treated preemergence with test chemicals formulated in a non-phytotoxic solvent mixture which included a surfactant.
(§2) At the same time, plants selected from these crop and weed species were treated with postemergence applications of some of the test chemicals formulated in the same manner. Plants ranged in height from 2 to 18 cm (1- to 4-leaf stage) for postemergence treatments. Treated plants and controls were maintained in a greenhouse for 12 to 14 days, after which time all species were compared to controls and visually evaluated. Plant response ratings, summarized in Table F, are based on a scale of 0 to 100 where 0 is no effect and 100 is complete control. A dash (-) response means no test result.

In a further assay the test system is green foxtail. The experiment in a line: Test F pre-/postemergence herbicide test. In kind it is in vivo, Setaria viridis.
Text: as §1, §2

The subject of the next assay is wheat cv. Retical. The experiment in a line: Test H safening on wheat by naphthalic anhydride seed treatment, pre-/postemergence. Format: in vivo, Triticum aestivum. Also on record: key to Response of wheat, Without naphthalic anhydride seed treatment: 0 = no effect, 100 = complete plant death, vs untreated control. The method, then: This test evaluated the safening of compounds of the invention on wheat (Triticum aestivumL.) cv. ‘Retical’ by seed treatment with naphthalic anhydride. Some of the wheat seed was treated with napthalic anhydride as a 1% by weight seed dressing. The wheat seed were planted in pots containing pasteurized Sassafras sandy loam soil. For postemergence testing the plants were grown 8 days to the 2-leaf stage at time of treatment. Preemergence treatments were applied the same day that the seeds were planted. Treatments were applied by spraying the test compounds formulated in a non-phytotoxic solvent mixture, using a flat fan nozzle and a spray volume of 280 L/ha. The preemergence treatments were triply replicated and the results subsequently averaged. The pots were placed on a growth chamber bench using a complete randomized block design for the preemergence test except for the first replicate, which was unrandomized. The plants were grown in the growth chamber and watered as needed with a dilute nutrient solution containing 200 ppm of N. Illumination was provided by fluorescent lamps giving 200-300 μE/m^2/S of photosynthetically active radiation over a 14-hour photoperiod. The temperature was maintained at 23±2° C. during the day and 17±2° C. at night. The effects of the treatments were rated 25 days after preemergence treatment and 14 days after postemergence treatment. The plant response was visually rated in comparison to untreated controls using a scale of 0 to 100, with 0 representing no effect and 100 representing complete plant death. The results for the compounds tested preemergence are listed in Table H1, and the results for the compounds tested postemergence are listed in Table H2.

Setting [1] is: Preemergence, 62 g ai/ha, scale 0 to 100.
[2] abbreviates: Preemergence, 250 g ai/ha, scale 0 (no effect) to 100 (complete control).
The mark [3] stands for this setting: Preemergence, 500 g ai/ha, scale 0 (no effect) to 100 (complete control).

3 molecules from patent US20060069132A1, “Azolecarboxamide herbicides” (priority 2004, published 2006) can be followed below.

The structures appear in SMILES notation.

Consider `CCn1nc(C(C)(C)C)cc1C(=O)Nc1cccc(C(N)=O)n1` [Compound 162, 6-[[[3-(1,1-dimethylethyl)-1-ethyl-1H-pyrazol-5-yl]carbonyl]amino]-2-pyridinecarboxamide], for which the “Plant response rating, Kochia” value came to 60 in the assay with kochia (setting [1]); 70 with kochia (Preemergence, 125 g ai/ha, scale 0 to 100); 95 in the assay with kochia (setting [2]); 95 in the assay on kochia (setting [3]). Further, the “Plant response rating (0-100), Bluegrass” value in the assay with annual blugrass (Postemergence, 62 g ai/ha) came out at 60; with annual blugrass (Postemergence, 125 g ai/ha), 60; with annual blugrass (Postemergence, 250 g ai/ha), 90; in the assay on annual blugrass (Postemergence, 500 g ai/ha), 100; in the assay on annual blugrass (Preemergence, 62 g ai/ha), 100; with annual blugrass (Preemergence, 125 g ai/ha) it was 100. The “Plant response rating (0-100), Bluegrass” value in the assay on annual blugrass (Preemergence, 250 g ai/ha) came to 100; in the assay on annual blugrass (Preemergence, 500 g ai/ha), 100. For the same molecule, the “Plant response rating (0-100), Foxtail, Green” value (shortened to “Plant response rating … Green”) in the assay with green foxtail (Postemergence, 62 g ai/ha) was determined as 50; in the assay on green foxtail (Postemergence, 125 g ai/ha), 50; in the assay on green foxtail (Postemergence, 250 g ai/ha) it was 60; with green foxtail (Postemergence, 500 g ai/ha), 100; in the assay on green foxtail (Preemergence, 62 g ai/ha), 70; in the assay on green foxtail (Preemergence, 125 g ai/ha) it was 100. For the same molecule, the “Plant response rating … Green” value is given as 100 in the assay on green foxtail (Preemergence, 250 g ai/ha) and 100 in the assay on green foxtail (Preemergence, 500 g ai/ha). Besides, the “Response of wheat, With 1% naphthalic anhydride seed treatment” value turned out to be 5 in the assay with wheat cv. Retical (postemergence, 62 g a.i./ha); 30 in the assay with wheat cv. Retical (postemergence, 125 g a.i./ha); 47 in the assay with wheat cv. Retical (preemergence, 62 g a.i./ha); 62 with wheat cv. Retical (preemergence, 125 g a.i./ha); 96 in the assay on wheat cv. Retical (preemergence, 250 g a.i./ha). Besides, the “Response of wheat, Without naphthalic anhydride seed treatment” value in the assay on wheat cv. Retical (postemergence, 62 g a.i./ha) is reported as 5; with wheat cv. Retical (postemergence, 125 g a.i./ha), 70; in the assay with wheat cv. Retical (preemergence, 62 g a.i./ha), 60; with wheat cv. Retical (preemergence, 125 g a.i./ha) it was 98; in the assay with wheat cv. Retical (preemergence, 250 g a.i./ha), 98.
As to `CCNC(=O)c1ccc(F)c(NC(=O)c2cc(C(C)(C)C)nn2CC)c1` [Compound 2, 3-(1,1-dimethylethyl)-1-ethyl-N-[5-[(ethylamino)carbonyl]-2-fluorophenyl]-1H-pyrazole-5-carboxamide], the “Plant response rating, Kochia” value is recorded as 90 with kochia (setting [1]); 100 in the assay on kochia (Preemergence, 125 g ai/ha, scale 0 (no effect) to 100 (complete control)); 100 with kochia (setting [2]); 100 in the assay with kochia (setting [3]); 100 in the assay with kochia (postemergence, 125 g ai/ha, scale 0 to 100). Also, the “Response of wheat, With 1% naphthalic anhydride seed treatment” value in the assay with wheat cv. Retical (postemergence, 62 g a.i./ha) is 30; in the assay on wheat cv. Retical (postemergence, 125 g a.i./ha), 65; in the assay on wheat cv. Retical (preemergence, 62 g a.i./ha), 50; in the assay on wheat cv. Retical (preemergence, 125 g a.i./ha), 72. Further, the “Response of wheat, Without naphthalic anhydride seed treatment” value in the assay on wheat cv. Retical (postemergence, 62 g a.i./ha) is recorded as 60; in the assay on wheat cv. Retical (postemergence, 125 g a.i./ha) it was 75; with wheat cv. Retical (preemergence, 62 g a.i./ha), 62; in the assay on wheat cv. Retical (preemergence, 125 g a.i./ha) it was 82.
As for `CCc1nn(C(C)(C)C)cc1C(=O)Nc1cc(C(=O)N(CC)CC)ccc1F` [Compound 223], the “Plant response rating (0-100), Bluegrass” value in the assay with annual blugrass (Postemergence, 125 g ai/ha) stood at 50; with annual blugrass (Preemergence, 125 g ai/ha) it was 100. Besides, the “Plant response rating … Green” value came to 60 in the assay on green foxtail (Postemergence, 125 g ai/ha) and 55 in the assay on green foxtail (Preemergence, 125 g ai/ha).
